One assay deals with T1, ATR (Homo sapiens, UniProt Q13535).
T1 construct: purchased Eurofins 14-953
The experiment in a line: ATR kinase inhibition, Mobility Shift Assay. It is filed as biochemical. As to conditions: n = 3, mean ± SD. The protocol:
The in vitro ATR kinase inhibitory activities were determined by ChemPartner Co., Ltd. (Shanghai, China) using the Mobility Shift Assay. The tested compound was dissolved with DMSO and diluted to 1000/3 × of the final desired highest inhibitor concentration in the reaction. […] The assay wells were incubated at 28 °C for 4 h.

The next assay has as its system MDA‐MB‐231. The experiment in a line: Cell growth inhibition, CellTiter‐Glo (CTG). It is filed as cell-based. As to conditions: Homo sapiens, MDA-MB-231, 120 h, read-out: IC50 MDA‐MB‐231; CTG, 5 days, n = 3. The protocol: (§1) All cells were grown in a humidified incubator at 37 °C and 5% CO2.
(§2) […] […] Relative viability was calculated by normalizing the raw luminescence counts of the treated groups to those of the DMSO control groups. IC₅₀ values were calculated using sigmoidal dose‐response curve fitting with GraphPad Prism 9.0 software.

Another assay has as its system MDA‐MB‐468. The experiment in a line: Cell growth inhibition, CellTiter‐Glo (CTG). It is filed as cell-based. As to conditions: Homo sapiens, MDA-MB-468, 120 h; CTG, 5 days, n = 3. The protocol: as §1, §2
Another assay concerns the target PARP1 (Homo sapiens, UniProt P09874). Description: PARP enzymatic inhibition ELISA (PARP1). As to conditions: for IC50: n = 3, mean ± SD. It is filed as biochemical. As for the experimental part: The PARP activity assay was performed by ChemPartner (Shanghai, China). Each well was precoated with histone (final conc.: 100 ng mL^−1) diluted in PBS buffer (contains 10 mmol L^−1 NaH2PO4 and 150 mmol L^−1 NaCl, pH 7.4) by incubation at 4 °C overnight. […] The reaction was initiated by the addition of 10 µL of PARP (final conc.: 0.007 nM/well) at room temperature for 60 min. Add 20 µL of anti‐Poly/Mono‐ADP Ribose Rabbit mAb. Incubate for 1.5 h at room temperature and wash the plate three times using PBST buffer. […] Incubate for 1 h at room temperature and wash the plate three times using PBST buffer. Add 25 µL Femto‐ECL Substrate A and Femto‐ECL Substrate B (1:1) mix. Immediately read chemiluminescence on Envision (Revvity, USA).
In general terms: In an ELISA, binding on a coated surface is turned into a signal by an enzyme label.

Some results are limits rather than exact numbers.

Sequence of PARP1 (P09874 whole entry): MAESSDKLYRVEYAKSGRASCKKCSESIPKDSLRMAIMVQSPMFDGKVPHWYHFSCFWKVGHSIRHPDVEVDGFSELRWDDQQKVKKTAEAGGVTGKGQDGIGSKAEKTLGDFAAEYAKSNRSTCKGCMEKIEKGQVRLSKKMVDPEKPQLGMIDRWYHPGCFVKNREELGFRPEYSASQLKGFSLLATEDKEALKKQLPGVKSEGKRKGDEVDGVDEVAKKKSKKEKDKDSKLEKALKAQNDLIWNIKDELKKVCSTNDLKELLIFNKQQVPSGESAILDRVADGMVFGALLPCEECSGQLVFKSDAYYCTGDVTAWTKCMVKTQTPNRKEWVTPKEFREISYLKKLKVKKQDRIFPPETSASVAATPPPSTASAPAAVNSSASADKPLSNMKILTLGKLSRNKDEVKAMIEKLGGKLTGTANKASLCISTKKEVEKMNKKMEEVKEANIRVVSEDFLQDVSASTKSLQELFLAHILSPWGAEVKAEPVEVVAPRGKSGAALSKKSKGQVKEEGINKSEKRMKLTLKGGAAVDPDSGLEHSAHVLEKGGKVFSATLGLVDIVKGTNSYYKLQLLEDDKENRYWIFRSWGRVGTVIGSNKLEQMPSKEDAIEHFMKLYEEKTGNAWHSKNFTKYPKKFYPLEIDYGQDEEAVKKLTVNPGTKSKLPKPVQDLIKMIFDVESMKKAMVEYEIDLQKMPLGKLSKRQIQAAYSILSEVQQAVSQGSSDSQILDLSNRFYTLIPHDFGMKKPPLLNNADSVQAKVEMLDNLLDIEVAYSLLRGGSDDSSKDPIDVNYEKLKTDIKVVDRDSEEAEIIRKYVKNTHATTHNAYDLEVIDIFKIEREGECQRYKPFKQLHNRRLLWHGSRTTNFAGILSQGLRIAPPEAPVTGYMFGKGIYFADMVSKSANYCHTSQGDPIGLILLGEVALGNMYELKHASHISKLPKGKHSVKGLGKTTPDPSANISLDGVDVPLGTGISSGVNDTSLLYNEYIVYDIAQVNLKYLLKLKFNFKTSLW
T1 sequence (Q13535 whole entry): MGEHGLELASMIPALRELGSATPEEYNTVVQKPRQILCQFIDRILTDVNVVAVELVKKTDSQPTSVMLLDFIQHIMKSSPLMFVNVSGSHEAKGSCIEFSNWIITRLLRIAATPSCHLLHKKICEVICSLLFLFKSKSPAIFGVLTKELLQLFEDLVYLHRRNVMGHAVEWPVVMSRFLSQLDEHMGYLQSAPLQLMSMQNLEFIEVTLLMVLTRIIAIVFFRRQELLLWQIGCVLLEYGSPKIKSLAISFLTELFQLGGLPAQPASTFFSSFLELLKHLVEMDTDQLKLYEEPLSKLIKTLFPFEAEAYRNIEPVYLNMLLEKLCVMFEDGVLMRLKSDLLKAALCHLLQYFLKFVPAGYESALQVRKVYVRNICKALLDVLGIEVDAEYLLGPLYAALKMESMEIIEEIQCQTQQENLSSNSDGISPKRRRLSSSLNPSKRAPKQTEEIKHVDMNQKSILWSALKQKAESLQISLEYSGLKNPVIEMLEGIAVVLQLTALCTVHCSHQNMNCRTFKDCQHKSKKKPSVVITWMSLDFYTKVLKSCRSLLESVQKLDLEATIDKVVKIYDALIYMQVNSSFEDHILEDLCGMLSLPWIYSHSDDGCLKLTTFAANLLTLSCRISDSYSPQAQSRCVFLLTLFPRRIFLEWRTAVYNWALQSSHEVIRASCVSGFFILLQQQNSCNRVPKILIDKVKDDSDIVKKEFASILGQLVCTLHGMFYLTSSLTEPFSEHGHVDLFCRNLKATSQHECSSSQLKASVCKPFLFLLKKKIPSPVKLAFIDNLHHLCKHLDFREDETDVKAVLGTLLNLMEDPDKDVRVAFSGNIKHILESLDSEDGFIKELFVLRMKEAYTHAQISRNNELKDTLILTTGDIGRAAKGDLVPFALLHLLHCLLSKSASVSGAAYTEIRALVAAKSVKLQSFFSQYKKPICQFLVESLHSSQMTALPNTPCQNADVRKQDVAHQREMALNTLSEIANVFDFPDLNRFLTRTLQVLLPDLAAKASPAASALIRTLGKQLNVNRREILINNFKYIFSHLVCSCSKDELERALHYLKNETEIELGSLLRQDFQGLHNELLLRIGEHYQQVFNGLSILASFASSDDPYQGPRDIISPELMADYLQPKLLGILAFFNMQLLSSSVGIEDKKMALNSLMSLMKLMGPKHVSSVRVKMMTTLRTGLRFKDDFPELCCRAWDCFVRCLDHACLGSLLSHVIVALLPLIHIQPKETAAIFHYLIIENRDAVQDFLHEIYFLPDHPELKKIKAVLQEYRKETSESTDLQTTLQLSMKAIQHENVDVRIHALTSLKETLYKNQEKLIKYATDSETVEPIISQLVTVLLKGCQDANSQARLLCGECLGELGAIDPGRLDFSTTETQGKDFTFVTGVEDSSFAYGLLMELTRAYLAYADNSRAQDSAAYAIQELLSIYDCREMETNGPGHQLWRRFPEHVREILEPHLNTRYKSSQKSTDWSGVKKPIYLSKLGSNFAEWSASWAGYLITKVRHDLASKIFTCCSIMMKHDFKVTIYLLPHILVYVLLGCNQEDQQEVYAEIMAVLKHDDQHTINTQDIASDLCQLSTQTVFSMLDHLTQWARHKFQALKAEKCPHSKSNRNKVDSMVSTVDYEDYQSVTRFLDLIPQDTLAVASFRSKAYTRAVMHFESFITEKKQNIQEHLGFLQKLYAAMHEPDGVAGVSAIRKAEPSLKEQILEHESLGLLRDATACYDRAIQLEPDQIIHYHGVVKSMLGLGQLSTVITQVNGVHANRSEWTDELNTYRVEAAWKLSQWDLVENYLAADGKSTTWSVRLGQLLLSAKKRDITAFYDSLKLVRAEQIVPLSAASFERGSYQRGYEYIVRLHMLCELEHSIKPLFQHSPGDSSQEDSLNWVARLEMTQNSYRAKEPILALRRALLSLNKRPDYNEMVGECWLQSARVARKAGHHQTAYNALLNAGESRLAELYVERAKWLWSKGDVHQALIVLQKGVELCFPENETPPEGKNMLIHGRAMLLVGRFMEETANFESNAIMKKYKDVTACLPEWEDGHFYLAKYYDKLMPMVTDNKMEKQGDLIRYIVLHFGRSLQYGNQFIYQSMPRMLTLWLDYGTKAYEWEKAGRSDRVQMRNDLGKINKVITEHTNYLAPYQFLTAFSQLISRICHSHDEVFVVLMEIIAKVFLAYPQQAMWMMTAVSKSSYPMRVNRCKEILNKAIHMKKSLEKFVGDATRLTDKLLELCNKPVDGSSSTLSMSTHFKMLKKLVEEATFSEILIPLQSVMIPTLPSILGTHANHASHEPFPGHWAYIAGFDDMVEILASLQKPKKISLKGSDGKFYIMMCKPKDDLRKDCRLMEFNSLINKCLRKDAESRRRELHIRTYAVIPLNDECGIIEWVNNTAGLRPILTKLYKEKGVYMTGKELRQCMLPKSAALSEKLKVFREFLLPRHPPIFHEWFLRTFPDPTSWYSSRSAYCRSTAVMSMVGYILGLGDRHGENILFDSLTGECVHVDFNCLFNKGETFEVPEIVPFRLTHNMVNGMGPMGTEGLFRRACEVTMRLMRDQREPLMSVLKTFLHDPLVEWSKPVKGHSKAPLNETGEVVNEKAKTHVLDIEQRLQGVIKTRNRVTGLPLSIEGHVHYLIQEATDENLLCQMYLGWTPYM
T1 sequence (Q8WXE1 whole entry partner): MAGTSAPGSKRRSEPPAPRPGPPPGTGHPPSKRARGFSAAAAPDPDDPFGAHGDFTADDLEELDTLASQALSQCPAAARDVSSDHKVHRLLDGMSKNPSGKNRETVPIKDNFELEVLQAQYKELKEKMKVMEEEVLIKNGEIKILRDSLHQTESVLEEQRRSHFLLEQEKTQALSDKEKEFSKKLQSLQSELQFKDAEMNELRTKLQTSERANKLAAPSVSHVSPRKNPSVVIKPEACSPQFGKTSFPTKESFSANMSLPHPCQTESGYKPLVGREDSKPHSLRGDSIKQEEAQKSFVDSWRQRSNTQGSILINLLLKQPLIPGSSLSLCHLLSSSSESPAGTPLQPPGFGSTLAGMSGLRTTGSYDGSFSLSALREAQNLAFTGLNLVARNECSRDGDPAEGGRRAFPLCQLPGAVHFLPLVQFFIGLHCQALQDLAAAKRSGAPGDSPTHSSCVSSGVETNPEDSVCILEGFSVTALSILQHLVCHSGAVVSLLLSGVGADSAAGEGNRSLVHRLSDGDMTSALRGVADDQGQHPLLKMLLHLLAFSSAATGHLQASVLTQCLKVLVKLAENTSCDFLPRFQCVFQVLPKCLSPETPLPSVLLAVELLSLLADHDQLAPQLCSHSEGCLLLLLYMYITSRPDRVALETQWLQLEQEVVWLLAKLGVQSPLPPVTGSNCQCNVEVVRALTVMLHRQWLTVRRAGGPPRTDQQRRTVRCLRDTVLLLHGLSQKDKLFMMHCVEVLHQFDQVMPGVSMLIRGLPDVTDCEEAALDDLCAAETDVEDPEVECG

One may read the IC50 as the concentration at which inhibition is half-maximal. Consider `C[C@@H]1COCCN1c1cc(C2(NC(=O)c3ccc(N4CCN(C(=O)c5cc(Cc6n[nH]c(=O)c7ccccc67)ccc5F)CC4)cc3)CC2)nc(-c2ccnc3[nH]ccc23)n1` [Compound A11, (R)‐4‐(4‐(2‐fluoro‐5‐((4‐oxo‐3,4‐dihydrophthalazin‐1‐yl)methyl)benzoyl)piperazin‐1‐yl)‐N‐(1‐(6‐(3‐methylmorpholino)‐2‐(1H‐pyrrolo[2,3‐b]pyridin‐4‐yl)pyrimidin‐4‐yl)cyclopropyl)benzamide], for which the half-inhibitory concentration (IC50) at ATR was 0.292 ± 0.0139 µM; with MDA‐MB‐231, greater than 50 µM; in the assay on MDA‐MB‐468, 0.57 ± 0.02 µM; against PARP1 it was 0.0023 ± 0.0005 µM.

Take `C[C@@H]1COCCN1c1cc(CNC(=O)c2ccc(C(=O)N3CCN(C(=O)c4cc(Cc5n[nH]c(=O)c6ccccc56)ccc4F)CC3)cn2)nc(-c2ccnc3[nH]ccc23)n1` [Compound B11, (R)‐5‐(4‐(2‐fluoro‐5‐((4‐oxo‐3,4‐dihydrophthalazin‐1‐yl)methyl)benzoyl)piperazine‐1‐carbonyl)‐N‐((6‐(3‐methylmorpholino)‐2‐(1H‐pyrrolo[2,3‐b]pyridin‐4‐yl)pyrimidin‐4‐yl)methyl) picolinamide]: the IC50 at ATR was 0.0311 ± 0.0047 µM; in the assay with MDA‐MB‐231 it was greater than 50 µM; with MDA‐MB‐468, 0.48 ± 0.03 µM; on PARP1, 0.001 ± 0.00013 µM.

For the compound `C[C@@H]1COCCN1c1cc(C2(NC(=O)CCCNC(=O)c3cc(Cc4n[nH]c(=O)c5ccccc45)ccc3F)CC2)nc(-c2ccnc3[nH]ccc23)n1` [Compound A4, (R)‐2‐fluoro‐N‐(4‐((1‐(6‐(3‐methylmorpholino)‐2‐(1H‐pyrrolo[2,3‐b]pyridin‐4‐yl)pyrimidin‐4‐yl)cyclopropyl)amino)‐4‐oxobutyl)‐5‐((4‐oxo‐3,4‐dihydrophthalazin‐1‐yl)methyl)benzamide], the IC50 at ATR is greater than 0.5 µM; with MDA‐MB‐231, greater than 50 µM; in the assay with MDA‐MB‐468 it was 3.08 ± 0.08 µM; at PARP1, 0.0034 µM.

In the case of `C[C@@H]1COCCN1c1cc(CNC(=O)c2ccc(C(=O)N3CCN(C(=O)c4cc(Cc5n[nH]c(=O)c6ccccc56)ccc4F)CC3)nc2)nc(-c2ccnc3[nH]ccc23)n1` [Compound B10, (R)‐6‐(4‐(2‐fluoro‐5‐((4‐oxo‐3,4‐dihydrophthalazin‐1‐yl)methyl)benzoyl)piperazine‐1‐carbonyl)‐N‐((6‐(3‐methylmorpholino)‐2‐(1H‐pyrrolo[2,3‐b]pyridin‐4‐yl)pyrimidin‐4‐yl)methyl) nicotinamide], the concentration for half-maximal inhibition (IC50) at ATR was 0.019 ± 0.0012 µM; in the assay on MDA‐MB‐231, greater than 50 µM; with MDA‐MB‐468, 1.7 ± 0.35 µM; against PARP1 it was 0.00061 ± 0.00015 µM.

For `C[C@@H]1COCCN1c1cc(C2(NC(=O)CCNC(=O)c3cc(Cc4n[nH]c(=O)c5ccccc45)ccc3F)CC2)nc(-c2ccnc3[nH]ccc23)n1` [Compound A3, (R)‐2‐fluoro‐N‐(3‐((1‐(6‐(3‐methylmorpholino)‐2‐(1H‐pyrrolo [2,3‐b]pyridin‐4‐yl)pyrimidin‐4‐yl)cyclopropyl)amino)‐3‐oxopropyl)‐5‐((4‐oxo‐3,4‐dihydrophthalazin‐1‐yl)methyl)benzamide], the IC50 at ATR was greater than 0.5 µM; in the assay on MDA‐MB‐231 it was greater than 50 µM; with MDA‐MB‐468 it was 27.3 ± 2.34 µM. In addition, the inhibition at 0.02 µM on PARP1 (@ 20 nM, read-out: PARP1 inhibitory rate at certain concentration) is 31.8 ± 2.4%.

With `C[C@@H]1COCCN1c1cc(CNC(=O)c2ccc(N3CCN(C(=O)c4cc(Cc5n[nH]c(=O)c6ccccc56)ccc4F)CC3)cc2)nc(-c2ccnc3[nH]ccc23)n1` [Compound B13, (R)‐4‐(4‐(2‐fluoro‐5‐((4‐oxo‐3,4‐dihydrophthalazin‐1‐yl)methyl)benzoyl)piperazin‐1‐yl)‐N‐((6‐(3‐methylmorpholino)‐2‐(1H‐pyrrolo[2,3‐b]pyridin‐4‐yl)pyrimidin‐4‐yl)methyl)benzamide], the half-maximal inhibitory concentration (IC50) on ATR was 0.022 ± 0.0017 µM; in the assay with MDA‐MB‐231, greater than 50 µM; in the assay on MDA‐MB‐468, 0.99 ± 0.06 µM; on PARP1, 0.0013 ± 0.0006 µM.

As to `C[C@@H]1COCCN1c1cc(CNC(=O)c2cnc(N3CCN(C(=O)c4cc(Cc5n[nH]c(=O)c6ccccc56)ccc4F)CC3)nc2)nc(-c2ccnc3[nH]ccc23)n1` [Compound B14, (R)‐2‐(4‐(2‐fluoro‐5‐((4‐oxo‐3,4‐dihydrophthalazin‐1‐yl)methyl)benzoyl)piperazin‐1‐yl)‐N‐((6‐(3‐methylmorpholino)‐2‐(1H‐pyrrolo[2,3‐b]pyridin‐4‐yl)pyrimidin‐4‐yl)methyl)pyramidine‐5‐carboxamide], the concentration for half-maximal inhibition (IC50) on ATR was 0.023 ± 0.0021 µM; in the assay on MDA‐MB‐231 it was greater than 50 µM; with MDA‐MB‐468 it was 0.09 ± 0.01 µM; against PARP1 it was 0.0012 ± 0.0004 µM.

On to `C[C@@H]1COCCN1c1cc(CNS(=O)(=O)c2ccc(C(=O)N3CCN(C(=O)c4cc(Cc5n[nH]c(=O)c6ccccc56)ccc4F)CC3)cc2)nc(-c2ccnc3[nH]ccc23)n1` [Compound B9, (R)‐4‐(4‐(2‐fluoro‐5‐((4‐oxo‐3,4‐dihydrophthalazin‐1‐yl)methyl)benzoyl)piperazine‐1‐carbonyl)‐N‐((6‐(3‐methylmorpholino)‐2‐(1H‐pyrrolo[2,3‐b]pyridin‐4‐yl)pyrimidin‐4‐yl)methyl) benzenesulfonamide], for which the IC50 at ATR was 0.205 ± 0.0131 µM; in the assay on MDA‐MB‐231, greater than 50 µM; in the assay with MDA‐MB‐468 it was 6.88 ± 0.63 µM; against PARP1, 0.00064 ± 0.00021 µM.

Turning to `C[C@@H]1COCCN1c1cc(C2(NC(=O)c3cnc(N4CCN(C(=O)c5cc(Cc6n[nH]c(=O)c7ccccc67)ccc5F)CC4)nc3)CC2)nc(-c2ccnc3[nH]ccc23)n1` [Compound A12, (R)‐2‐(4‐(2‐fluoro‐5‐((4‐oxo‐3,4‐dihydrophthalazin‐1‐yl)methyl)benzoyl)piperazin‐1‐yl)‐N‐(1‐(6‐(3‐methylmorpholino)‐2‐(1H‐pyrrolo[2,3‐b]pyridin‐4‐yl)pyrimidin‐4‐yl)cyclopropyl)pyrimidine‐5‐carboxamide], the IC50 on ATR is 0.105 ± 0.0072 µM; in the assay on MDA‐MB‐231, greater than 50 µM; with MDA‐MB‐468, 0.24 ± 0.01 µM; against PARP1 it was 0.0017 ± 0.0002 µM.

As for `C[C@@H]1COCCN1c1cc(C2(NC(=O)c3ccc(CN4CCN(C(=O)c5cc(Cc6n[nH]c(=O)c7ccccc67)ccc5F)CC4)cc3)CC2)nc(-c2ccnc3[nH]ccc23)n1` [Compound A10, (R)‐4‐((4‐(2‐fluoro‐5‐((4‐oxo‐3,4‐dihydrophthalazin‐1‐yl)methyl)benzoyl)piperazin‐1‐yl)methyl)‐N‐(1‐(6‐(3‐methylmorpholino)‐2‐(1H‐pyrrolo[2,3‐b]pyridin‐4‐yl)pyrimidin‐4‐yl)cyclopropyl)benzamide], the concentration for half-maximal inhibition (IC50) is 0.185 ± 0.0163 µM on ATR, greater than 50 µM in the assay on MDA‐MB‐231, greater than 50 µM in the assay on MDA‐MB‐468 and 0.0193 ± 0.0029 µM at PARP1.

In the case of `C[C@@H]1COCCN1c1cc(C2(NS(=O)(=O)c3ccc(C(=O)N4CCN(C(=O)c5cc(Cc6n[nH]c(=O)c7ccccc67)ccc5F)CC4)cc3)CC2)nc(-c2ccnc3[nH]ccc23)n1` [Compound A8, (R)‐4‐(4‐(2‐fluoro‐5‐((4‐oxo‐3,4‐dihydrophthalazin‐1‐yl)methyl)benzoyl)piperazine‐1‐carbonyl)‐N‐(1‐(6‐(3‐methylmorpholino)‐2‐(1H‐pyrrolo[2,3‐b]pyridin‐4‐yl)pyrimidin‐4‐yl)cyclopropyl)benzenesulfonamide], the concentration for half-maximal inhibition (IC50) was 1.32 ± 0.189 µM at ATR, greater than 50 µM with MDA‐MB‐231, 0.62 ± 0.06 µM with MDA‐MB‐468 and 0.00075 ± 0.00027 µM against PARP1.

The values are drawn from PMC12362783 (Advanced Science, 2025).
